Measured values published in PMC7816197 (Journal of Medicinal Chemistry, 2020).
Values belong to the molecule of their own block, whether it stands above or below them.

Legend:
human NAPE-PLD = human NAPE-PLD (Homo sapiens, UniProt Q6IQ20); assay: NAPE-PLD PED6 surrogate substrate activity assay; type: biochemical; conditions: for inhibitory activity in words: PED6 assay, human NAPE-PLD; for fold drop in potency: compared to hit 2; for fold increase in potency/activity: compared to 2
Neuro-2a cells = conditions: cited from earlier work
[1] = tested on: brains of freely moving mice; conditions: cited from earlier work
HEK293 cells = conditions: cited from earlier work
[2] = not suited for in vivo use; cited from earlier work

Sequence of human NAPE-PLD (Q6IQ20 whole entry): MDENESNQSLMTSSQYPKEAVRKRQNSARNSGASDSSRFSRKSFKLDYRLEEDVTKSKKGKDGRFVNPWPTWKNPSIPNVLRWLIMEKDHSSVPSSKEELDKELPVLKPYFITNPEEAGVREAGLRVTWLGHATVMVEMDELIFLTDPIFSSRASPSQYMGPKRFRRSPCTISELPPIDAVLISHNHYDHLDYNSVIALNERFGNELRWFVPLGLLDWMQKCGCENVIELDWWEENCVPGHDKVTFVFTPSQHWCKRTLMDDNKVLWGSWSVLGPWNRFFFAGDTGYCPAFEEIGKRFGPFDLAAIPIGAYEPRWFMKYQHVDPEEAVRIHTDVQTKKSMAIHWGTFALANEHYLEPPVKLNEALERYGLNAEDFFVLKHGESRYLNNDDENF

Compound: CN(CCc1ccccc1)c1nc(C(=O)NCC2CC2)nc(N2CCOCC2)n1 [Compound 6, N-(Cyclopropylmethyl)-4-(methyl(phenethyl)amino)-6-morpholino-1,3,5-triazine-2-carboxamide]
inhibitory activity in words (human NAPE-PLD): completely inactive

Compound: O=C(NCC1CC1)c1cc(N2CCOCC2)ncn1 [Compound 32, N-(Cyclopropylmethyl)-6-morpholinopyrimidine-4-carboxamide]
inhibitory activity in words (human NAPE-PLD): inactive

Compound: CC(C)CNC(=O)c1cc(N2CCOCC2)nc(N(C)CCc2ccccc2)n1 [Compound 15, N-Isobutyl-2-(methyl(phenethyl)amino)-6-morpholinopyrimidine-4-carboxamide]
fold drop in potency (human NAPE-PLD): 10 fold

Compound: O=C(NCC1CC1)c1cc(N2CC[C@@H](O)C2)nc(N2CCC[C@H](c3ccccc3)C2)n1 [Compound 107, N-(Cyclopropylmethyl)-6-((R)-3-hydroxypyrrolidin-1-yl)-2-((R)-3-phenylpiperidin-1-yl)pyrimidine-4-carboxamide]
fold-reduced activity (human NAPE-PLD; (R,R) enantiomer compared to 1): 3 fold

Compound: O=C(NCC1CC1)c1cc(N2CC[C@H](O)C2)nc(N2CCC[C@@H](c3ccccc3)C2)n1 [Compound 1, N-(Cyclopropylmethyl)-6-((S)-3-hydroxypyrrolidin-1-yl)-2-((S)-3-phenylpiperidin-1-yl)pyrimidine-4-carboxamide]
turnover of PED6 (human NAPE-PLD; at a dose of 10 μM, full efficacy): completely blocked
fold increase in potency/activity (human NAPE-PLD): 10 fold
NAE levels including anandamide (Neuro-2a cells): reduced
anandamide levels in mouse brain ([1]; 30 mg/kg, intraperitoneal injection): decreased
NAE levels including anandamide ([1]; brains of freely moving mice): reduced

Compound: CC(C)N(CCc1ccccc1)c1nc(C(=O)NCC2CC2)cc(N2CCOCC2)n1 [Compound 55, N-(Cyclopropylmethyl)-2-(isopropyl(phenethyl)amino)-6-morpholinopyrimidine-4-carboxamide]
fold increase in potency/activity (human NAPE-PLD): 2 fold

Compound: CN(CCc1ccccc1)c1nc(C(=O)NCC2CC2)cc(N2CCCC2)n1 [Compound 87, N-(Cyclopropylmethyl)-2-(methyl(phenethyl)amino)-6-(pyrrolidin-1-yl)pyrimidine-4-carboxamide]
fold increase in potency/activity (human NAPE-PLD): ~4 fold

Compound: CN(CC1CC1)C(=O)c1cc(N2CCOCC2)nc(N(C)CCc2ccccc2)n1 [Compound 7, N-(Cyclopropylmethyl)-N-methyl-2-(methyl(phenethyl)amino)-6-morpholinopyrimidine-4-carboxamide]
inhibitory activity in words (human NAPE-PLD): complete loss of potency

Compound: CN(C)c1cc(C(=O)NCC2CC2)nc(N(C)CCc2ccccc2)n1 [Compound 81, N-(Cyclopropylmethyl)-6-(dimethylamino)-2-(methyl(phenethyl)amino)pyrimidine-4-carboxamide]
fold increase in potency/activity (human NAPE-PLD): 2 fold

Compound: CN(CCc1ccccc1)c1nc(C(=O)NCC2CC2)cc(N2CCCC(F)(F)C2)n1 [Compound 72, N-(Cyclopropylmethyl)-6-(3,3-difluoropiperidin-1-yl)-2-(methyl(phenethyl)amino)pyrimidine-4-carboxamide]
fold increase in potency/activity (human NAPE-PLD): 2 fold

Compound: Oc1c(Cl)cc(Cl)c(Cl)c1Cc1c(O)c(Cl)cc(Cl)c1Cl [hexachlorophene]
neurotoxicity [2]: neurotoxic effects

More lines, main results first:

fold increase in potency/activity (human NAPE-PLD): 2 fold
Compound: O=C(NCC1CC1)c1cc(N2CCOCC2)nc(N2CCCC(c3ccccc3)C2)n1 (racemic) [Compound 62, (±)-N-(Cyclopropylmethyl)-6-morpholino-2-(3-phenylpiperidin-1-yl)pyrimidine-4-carboxamide]

inhibitory activity in words (human NAPE-PLD): inactive
Compound: O=C(NCC1CC1)c1cc(N2CCOCC2)nc(Cl)n1 [Compound 31, 2-Chloro-N-(cyclopropylmethyl)-6-morpholinopyrimidine-4-carboxamide]

inhibitory activity in words (human NAPE-PLD): not active
Compound: C[C@H](CCC(=O)O)[C@H]1CC[C@H]2[C@@H]3CC[C@@H]4C[C@H](O)CC[C@]4(C)[C@H]3CC[C@]12C [lithocholic acid, reference compound]

fold increase in potency/activity (human NAPE-PLD): 2 fold
Compound: O=C(NCC1CC1)c1cc(N2CCOCC2)nc(N2CCCC2Cc2ccccc2)n1 (racemic) [Compound 63, (±)-2-(2-Benzylpyrrolidin-1-yl)-N-(cyclopropylmethyl)-6-morpholinopyrimidine-4-carboxamide]

fold drop in potency (human NAPE-PLD): 10 fold
Compound: CN(CCc1ccccc1)c1nc(NC(=O)CC2CC2)cc(N2CCOCC2)n1 [Compound 30, 2-Cyclopropyl-N-(2-(methyl(phenethyl)amino)-6-morpholinopyrimidin-4-yl)acetamide]

IC50 (human NAPE-PLD): 54 µM
Compound: O=c1[nH]c(=O)c2cc(S(=O)(=O)Nc3ccc(-c4ccncc4)cc3)ccc2[nH]1 [ARN19874]
NAE levels (HEK293 cells): did not affect
NAPE levels (HEK293 cells): increase

fold drop in potency (human NAPE-PLD): 10 fold
Compound: CN(CCc1ccccc1)c1cc(N2CCOCC2)cc(C(=O)NCC2CC2)n1 [Compound 3, N-(Cyclopropylmethyl)-6-(methyl(phenethyl)amino)-4-morpholino-picolinamide]
